Legend:
velvetleaf = assay: Test A pre-/postemergence greenhouse test; assay type: in vivo, Abutilon theophrasti; settings: for Velvetleaf plant response rating: 0 to 100 scale; for Plant response rating, Velvetleaf: 0 to 100 scale where 0 is no effect and 100 is complete control
Summary of the method: (§1)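 Untreated controls served as the reference for visual injury ratings taken about ten days after spraying. The non-phytotoxic solvent/surfactant formulation was applied preemergence to seeded loam and sand and postemergence to plants two to ten cm high.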

crabgrass = assay: Test A pre-/postemergence greenhouse test; assay type: in vivo, Digitaria sanguinalis; settings: for Crabgrass, Large plant response rating: 0 to 100 scale; for Plant response rating, Crabgrass, Large: 0 to 100 scale where 0 is no effect and 100 is complete control
Summary of the method: as §1

redroot pigweed = assay: Test A pre-/postemergence greenhouse test; assay type: in vivo, Amaranthus retroflexus; settings: for Pigweed plant response rating: 0 to 100 scale; for Plant response rating, Pigweed: 0 to 100 scale where 0 is no effect and 100 is complete control
Summary of the method: as §1

giant foxtail = assay: Test A pre-/postemergence greenhouse test; assay type: in vivo, Setaria faberi; settings: for Foxtail, Giant plant response rating: 0 to 100 scale; for Plant response rating, Foxtail, Giant: 0 to 100 scale where 0 is no effect and 100 is complete control
Summary of the method: as §1

corn = assay: Test A pre-/postemergence greenhouse test; assay type: in vivo, Zea mays; settings: for Corn plant response rating: 0 to 100 scale; for Plant response rating, Corn: 0 to 100 scale where 0 is no effect and 100 is complete control
Summary of the method: as §1

umbrella sedge = assay: Test C flooded paddy test; assay type: in vivo, Cyperus difformis; settings: Flood
Summary of the method: (§2)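 Pots were flooded to 3 cm above the soil surface at treatment, compound applied directly to the paddy water, and that depth held throughout. Plants were kept in a greenhouse for 13 to 15 days, then visually rated against untreated controls.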

wheat = assay: Test A pre-/postemergence greenhouse test; assay type: in vivo, Triticum aestivum; settings: for Wheat plant response rating: 0 to 100 scale; for Plant response rating, Wheat: 0 to 100 scale where 0 is no effect and 100 is complete control
Summary of the method: as §1

duck salad = assay: Test C flooded paddy test; assay type: in vivo, Heteranthera limosa; settings: Flood
Summary of the method: as §2

rice = assay: Test C flooded paddy test; assay type: in vivo, Oryza sativa; settings: Flood
Summary of the method: as §2

barnyardgrass [1] = assay: Test A pre-/postemergence greenhouse test; assay type: in vivo, Echinochloa crus-galli; settings: for Barnyardgrass plant response rating: 0 to 100 scale; for Plant response rating, Barnyardgrass: 0 to 100 scale where 0 is no effect and 100 is complete control
Summary of the method: as §1

barnyardgrass [2] = assay: Test C flooded paddy test; assay type: in vivo, Echinochloa crus-galli; settings: Flood
Summary of the method: as §2

morningglory = assay: Test A pre-/postemergence greenhouse test; assay type: in vivo, Ipomoea spp.; settings: for Morningglory plant response rating: 0 to 100 scale; for Plant response rating, Morningglory: 0 to 100 scale where 0 is no effect and 100 is complete control
Summary of the method: as §1

[3] = Postemergence, 125 g ai/ha, 0 is no effect, 100 is complete control
[4] = Postemergence, 500 g ai/ha, 0 is no effect, 100 is complete control
[5] = Preemergence, 125 g ai/ha, 0 no effect, 100 complete control
[6] = 31 g ai/ha, scale 0 to 100 (0 no effect, 100 complete control)
[7] = 62 g ai/ha, scale 0 to 100, 0 no effect, 100 complete control, 13 to 15 days
[8] = 125 g ai/ha, scale 0 to 100, 0 no effect, 100 complete control, 13 to 15 days
[9] = 250 g ai/ha, scale 0 to 100, 0 no effect, 100 complete control, 13 to 15 days
[10] = Preemergence, 500 g ai/ha, 0 no effect, 100 complete control
[11] = 62 g ai/ha, scale 0 to 100 (0 no effect, 100 complete control)

Cn1nc(C(F)(F)F)c(CS(=O)(=O)c2cc(Br)cc[n+]2[O-])c1Cl [Compound 32]
Velvetleaf plant response rating (velvetleaf; [3]): 0
Velvetleaf plant response rating (velvetleaf; [4]): 0
Velvetleaf plant response rating (velvetleaf; [5]): 0
Plant response rating, Velvetleaf (velvetleaf; Preemergence, 500 g ai/ha): 0
Crabgrass, Large plant response rating (crabgrass; [3]): 0
Crabgrass, Large plant response rating (crabgrass; [4]): 0
Crabgrass, Large plant response rating (crabgrass; [5]): 0
Plant response rating, Crabgrass, Large (crabgrass; Preemergence, 500 g ai/ha): 0
Pigweed plant response rating (redroot pigweed; [3]): 0
Pigweed plant response rating (redroot pigweed; [4]): 0
Pigweed plant response rating (redroot pigweed; [5]): 0
Plant response rating, Pigweed (redroot pigweed; Preemergence, 500 g ai/ha): 100
Foxtail, Giant plant response rating (giant foxtail; [3]): 0
Foxtail, Giant plant response rating (giant foxtail; [4]): 0
Foxtail, Giant plant response rating (giant foxtail; [5]): 0
Plant response rating, Foxtail, Giant (giant foxtail; Preemergence, 500 g ai/ha): 70
Corn plant response rating (corn; [3]): 0
Corn plant response rating (corn; [4]): 0
Corn plant response rating (corn; [5]): 0
Plant response rating, Corn (corn; Preemergence, 500 g ai/ha): 20
Plant response rating, Sedge, Umbrella (umbrella sedge; [6]): 0
Plant response rating, Sedge, Umbrella (umbrella sedge; [7]): 0
Plant response rating, Sedge, Umbrella (umbrella sedge; [8]): 0
Plant response rating, Sedge, Umbrella (umbrella sedge; [9]): 50
Wheat plant response rating (wheat; [3]): 0
Wheat plant response rating (wheat; [4]): 0
Wheat plant response rating (wheat; [5]): 0
Plant response rating, Wheat (wheat; Preemergence, 500 g ai/ha): 30
Plant response rating, Ducksalad (duck salad; [6]): 0
Plant response rating, Ducksalad (duck salad; [7]): 0
Plant response rating, Ducksalad (duck salad; [8]): 0
Plant response rating, Ducksalad (duck salad; [9]): 50
Plant response rating, Rice (rice; [6]): 0
Plant response rating, Rice (rice; [7]): 0
Plant response rating, Rice (rice; [8]): 0
Plant response rating, Rice (rice; [9]): 0
Barnyardgrass plant response rating (barnyardgrass [1]; [3]): 0
Barnyardgrass plant response rating (barnyardgrass [1]; [4]): 30
Barnyardgrass plant response rating (barnyardgrass [1]; [5]): 0
Plant response rating, Barnyardgrass (barnyardgrass [1]; Preemergence, 500 g ai/ha): 60
Plant response rating, Barnyardgrass (barnyardgrass [2]; [6]): 0
Plant response rating, Barnyardgrass (barnyardgrass [2]; [7]): 0
Plant response rating, Barnyardgrass (barnyardgrass [2]; [8]): 0
Plant response rating, Barnyardgrass (barnyardgrass [2]; [9]): 0
Morningglory plant response rating (morningglory; [3]): 0
Morningglory plant response rating (morningglory; [4]): 10
Morningglory plant response rating (morningglory; [5]): 0
Plant response rating, Morningglory (morningglory; Preemergence, 500 g ai/ha): 0

CCOc1ccc(S(=O)(=O)Cc2c(C(F)(F)F)nn(C)c2OC(F)F)[n+]([O-])c1 [Compound 105]
Plant response rating, Velvetleaf (velvetleaf; Postemergence, 125 g ai/ha): 0
Velvetleaf plant response rating (velvetleaf; [4]): 0
Velvetleaf plant response rating (velvetleaf; [5]): 0
Velvetleaf plant response rating (velvetleaf; [10]): 0
Plant response rating, Crabgrass, Large (crabgrass; Postemergence, 125 g ai/ha): 10
Crabgrass, Large plant response rating (crabgrass; [4]): 70
Crabgrass, Large plant response rating (crabgrass; [5]): 40
Crabgrass, Large plant response rating (crabgrass; [10]): 70
Plant response rating, Pigweed (redroot pigweed; Postemergence, 125 g ai/ha): 0
Pigweed plant response rating (redroot pigweed; [4]): 0
Pigweed plant response rating (redroot pigweed; [5]): 0
Pigweed plant response rating (redroot pigweed; [10]): 0
Plant response rating, Foxtail, Giant (giant foxtail; Postemergence, 125 g ai/ha): 10
Foxtail, Giant plant response rating (giant foxtail; [4]): 60
Foxtail, Giant plant response rating (giant foxtail; [5]): 40
Foxtail, Giant plant response rating (giant foxtail; [10]): 50
Plant response rating, Corn (corn; Postemergence, 125 g ai/ha): 0
Corn plant response rating (corn; [4]): 0
Corn plant response rating (corn; [5]): 0
Corn plant response rating (corn; [10]): 0
Plant response rating, Sedge, Umbrella (umbrella sedge; [6]): 0
Plant response rating, Sedge, Umbrella (umbrella sedge; [11]): 0
Plant response rating, Sedge, Umbrella (umbrella sedge; [8]): 0
Plant response rating, Sedge, Umbrella (umbrella sedge; [9]): 0
Plant response rating, Wheat (wheat; Postemergence, 125 g ai/ha): 0
Wheat plant response rating (wheat; [4]): 0
Wheat plant response rating (wheat; [5]): 0
Wheat plant response rating (wheat; [10]): 0
Plant response rating, Ducksalad (duck salad; [6]): 0
Plant response rating, Ducksalad (duck salad; [11]): 0
Plant response rating, Ducksalad (duck salad; [8]): 0
Plant response rating, Ducksalad (duck salad; [9]): 0
Plant response rating, Rice (rice; [6]): 0
Plant response rating, Rice (rice; [11]): 0
Plant response rating, Rice (rice; [8]): 0
Plant response rating, Rice (rice; [9]): 0
Plant response rating, Barnyardgrass (barnyardgrass [1]; Postemergence, 125 g ai/ha): 10
Barnyardgrass plant response rating (barnyardgrass [1]; [4]): 60
Barnyardgrass plant response rating (barnyardgrass [1]; [5]): 10
Barnyardgrass plant response rating (barnyardgrass [1]; [10]): 30
Plant response rating, Barnyardgrass (barnyardgrass [2]; [6]): 0
Plant response rating, Barnyardgrass (barnyardgrass [2]; [11]): 0
Plant response rating, Barnyardgrass (barnyardgrass [2]; [8]): 0
Plant response rating, Barnyardgrass (barnyardgrass [2]; [9]): 0
Plant response rating, Morningglory (morningglory; Postemergence, 125 g ai/ha): 0
Morningglory plant response rating (morningglory; [4]): 30
Morningglory plant response rating (morningglory; [5]): 10
Morningglory plant response rating (morningglory; [10]): 40
